Source: US20100298141A1, “SUBSTITUTED PYRIDINE N-OXIDE HERBICIDES” (E. I. DU PONT DE NEMOURS AND COMPANY, priority 2007, published 2010)

Experiments:
[1] = tested on: duck salad; test: Test C flooded paddy test; assay type: in vivo, Heteranthera limosa; details: Flood
Outline: (§1)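 Flooded 3 cm over soil; compound into paddy water; depth kept constant. Greenhouse 13–15 d.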

[2] = tested on: morningglory; test: Test A pre-/postemergence greenhouse test; assay type: in vivo, Ipomoea spp.; details: for Plant response rating, Morningglory: 0 to 100 scale where 0 is no effect and 100 is complete control; for Morningglory plant response rating: 0 to 100 scale
Outline: (§2)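 Seeds sown in a loam soil–sand blend got a preemergence directed soil spray of compound in a non-phytotoxic solvent mixture containing surfactant. Postemergence sprays of the same formulation went at the same time onto plants 2–10 cm tall at the one- to two-leaf stage. Injury was scored visually against untreated controls after about ten days in the greenhouse.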

[3] = tested on: crabgrass; test: Test A pre-/postemergence greenhouse test; assay type: in vivo, Digitaria sanguinalis; details: for Plant response rating, Crabgrass, Large: 0 to 100 scale where 0 is no effect and 100 is complete control; for Crabgrass, Large plant response rating: 0 to 100 scale
Outline: as §2

[4] = tested on: corn; test: Test A pre-/postemergence greenhouse test; assay type: in vivo, Zea mays; details: for Plant response rating, Corn: 0 to 100 scale where 0 is no effect and 100 is complete control; for Corn plant response rating: 0 to 100 scale
Outline: as §2

[5] = tested on: redroot pigweed; test: Test A pre-/postemergence greenhouse test; assay type: in vivo, Amaranthus retroflexus; details: for Plant response rating, Pigweed: 0 to 100 scale where 0 is no effect and 100 is complete control; for Pigweed plant response rating: 0 to 100 scale
Outline: as §2

[6] = tested on: velvetleaf; test: Test A pre-/postemergence greenhouse test; assay type: in vivo, Abutilon theophrasti; details: for Plant response rating, Velvetleaf: 0 to 100 scale where 0 is no effect and 100 is complete control; for Velvetleaf plant response rating: 0 to 100 scale
Outline: as §2

[7] = tested on: barnyardgrass; test: Test C flooded paddy test; assay type: in vivo, Echinochloa crus-galli; details: Flood
Outline: as §1

[8] = tested on: giant foxtail; test: Test A pre-/postemergence greenhouse test; assay type: in vivo, Setaria faberi; details: for Plant response rating, Foxtail, Giant: 0 to 100 scale where 0 is no effect and 100 is complete control; for Foxtail, Giant plant response rating: 0 to 100 scale
Outline: as §2

[9] = tested on: barnyardgrass; test: Test A pre-/postemergence greenhouse test; assay type: in vivo, Echinochloa crus-galli; details: for Plant response rating, Barnyardgrass: 0 to 100 scale where 0 is no effect and 100 is complete control; for Barnyardgrass plant response rating: 0 to 100 scale
Outline: as §2

[10] = tested on: umbrella sedge; test: Test C flooded paddy test; assay type: in vivo, Cyperus difformis; details: Flood
Outline: as §1

[11] = tested on: rice; test: Test C flooded paddy test; assay type: in vivo, Oryza sativa; details: Flood
Outline: as §1

[12] = tested on: wheat; test: Test A pre-/postemergence greenhouse test; assay type: in vivo, Triticum aestivum; details: for Plant response rating, Wheat: 0 to 100 scale where 0 is no effect and 100 is complete control; for Wheat plant response rating: 0 to 100 scale
Outline: as §2

[13] = 62 g ai/ha, scale 0 to 100 (0 no effect, 100 complete control)
[14] = 250 g ai/ha, scale 0 to 100, 0 no effect, 100 complete control, 13 to 15 days
[15] = Postemergence, 500 g ai/ha, 0 is no effect, 100 is complete control
[16] = Preemergence, 125 g ai/ha, 0 no effect, 100 complete control
[17] = Preemergence, 500 g ai/ha, 0 no effect, 100 complete control
[18] = 62 g ai/ha, scale 0 to 100, 0 no effect, 100 complete control, 13 to 15 days

SMILES | Plant response rating, Ducksalad [1, 14] | Plant response rating, Morningglory ([2]; Postemergence, 125 g ai/ha) | Morningglory plant response rating [2, 15] | Morningglory plant response rating [2, 16] | Plant response rating, Morningglory ([2]; Preemergence, 500 g ai/ha) | Plant response rating, Crabgrass, Large ([3]; Postemergence, 125 g ai/ha) | Crabgrass, Large plant response rating [3, 15] | Crabgrass, Large plant response rating [3, 16] | Plant response rating, Crabgrass, Large ([3]; Preemergence, 500 g ai/ha) | Corn plant response rating [4, 15] | Corn plant response rating [4, 16] | Plant response rating, Corn ([4]; Preemergence, 500 g ai/ha) | Plant response rating, Pigweed ([5]; Postemergence, 125 g ai/ha) | Pigweed plant response rating [5, 15] | Pigweed plant response rating [5, 16] | Plant response rating, Pigweed ([5]; Preemergence, 500 g ai/ha) | Plant response rating, Velvetleaf ([6]; Postemergence, 125 g ai/ha) | Velvetleaf plant response rating [6, 15] | Velvetleaf plant response rating [6, 16] | Plant response rating, Barnyardgrass [7, 14] | further results
Cc1cc[n+]([O-])c([S+]([O-])Cc2c(C(F)(F)C(F)(F)F)nn(C)c2OCC(F)(F)F)c1 (stereo not drawn) [Compound 91] | 100 | 20 | 100 | 40 | 100 | 50 | 80 | 20 | 100 | 80 | 10 | 90 | 50 | 60 | 90 | 100 | 30 | 80 | 0 | 70 | Plant response rating, Ducksalad [1, 13]: 45; Plant response rating, Corn ([4]; Postemergence, 125 g ai/ha): 20; Velvetleaf plant response rating [6, 17]: 100; Plant response rating, Barnyardgrass [7, 13]: 0; Plant response rating, Foxtail, Giant ([8]; Postemergence, 125 g ai/ha): 80; Foxtail, Giant plant response rating [8, 15]: 90; Foxtail, Giant plant response rating [8, 16]: 90; Plant response rating, Foxtail, Giant ([8]; Preemergence, 500 g ai/ha): 100; Plant response rating, Barnyardgrass ([9]; Postemergence, 125 g ai/ha): 70; Barnyardgrass plant response rating [9, 15]: 90; Barnyardgrass plant response rating [9, 16]: 20; Plant response rating, Barnyardgrass ([9]; Preemergence, 500 g ai/ha): 100; Plant response rating, Sedge, Umbrella [10, 13]: 75; Plant response rating, Sedge, Umbrella [10, 14]: 100; Plant response rating, Rice [11, 13]: 0; Plant response rating, Rice [11, 14]: 70; Plant response rating, Wheat ([12]; Postemergence, 125 g ai/ha): 60; Wheat plant response rating [12, 15]: 80; Wheat plant response rating [12, 16]: 40; Wheat plant response rating [12, 17]: 100
O=S(=O)(Cc1c(C(F)(F)F)nn(CC(F)(F)F)c1Cl)c1cccc[n+]1[O-] [Compound 44] | 40 | 10 | 40 | 0 | 60 | 70 | 80 | 60 | 100 | 0 | 0 | 0 | 0 | 10 | 0 | 100 | 0 | 30 | 0 | 0 | Plant response rating, Ducksalad [1, 18]: 0; Plant response rating, Corn ([4]; Postemergence, 125 g ai/ha): 0; Plant response rating, Velvetleaf ([6]; Preemergence, 500 g ai/ha): 30; Plant response rating, Barnyardgrass [7, 18]: 0; Plant response rating, Foxtail, Giant ([8]; Postemergence, 125 g ai/ha): 70; Foxtail, Giant plant response rating [8, 15]: 80; Foxtail, Giant plant response rating [8, 16]: 90; Plant response rating, Foxtail, Giant ([8]; Preemergence, 500 g ai/ha): 100; Plant response rating, Barnyardgrass ([9]; Postemergence, 125 g ai/ha): 70; Barnyardgrass plant response rating [9, 15]: 80; Barnyardgrass plant response rating [9, 16]: 70; Plant response rating, Barnyardgrass ([9]; Preemergence, 500 g ai/ha): 90; Plant response rating, Sedge, Umbrella [10, 14]: 50; Plant response rating, Rice [11, 18]: 0; Plant response rating, Rice [11, 14]: 30; Plant response rating, Wheat ([12]; Postemergence, 125 g ai/ha): 0; Wheat plant response rating [12, 15]: 0; Wheat plant response rating [12, 16]: 0; Plant response rating, Wheat ([12]; Preemergence, 500 g ai/ha): 20
CC(Oc1c(CS(=O)(=O)c2ccc(Cl)c[n+]2[O-])c(C(F)(F)F)nn1C)C(F)(F)F (stereo not drawn) [Compound 95] | 80 | 0 | 20 | 0 | 20 | 20 | 80 | 20 | 80 | 0 | 0 | 0 | 0 | 30 | 0 | 10 | 40 | 40 | 0 | 20 | Plant response rating, Ducksalad [1, 13]: 0; Velvetleaf plant response rating [6, 17]: 0; Plant response rating, Barnyardgrass [7, 13]: 0; Plant response rating, Foxtail, Giant ([8]; Postemergence, 125 g ai/ha): 20; Foxtail, Giant plant response rating [8, 15]: 80; Foxtail, Giant plant response rating [8, 16]: 70; Plant response rating, Foxtail, Giant ([8]; Preemergence, 500 g ai/ha): 90; Plant response rating, Barnyardgrass ([9]; Postemergence, 125 g ai/ha): 50; Barnyardgrass plant response rating [9, 15]: 70; Barnyardgrass plant response rating [9, 16]: 10; Plant response rating, Barnyardgrass ([9]; Preemergence, 500 g ai/ha): 90; Plant response rating, Sedge, Umbrella [10, 13]: 0; Plant response rating, Sedge, Umbrella [10, 14]: 35; Plant response rating, Rice [11, 13]: 0; Plant response rating, Rice [11, 14]: 20; Wheat plant response rating [12, 15]: 30; Wheat plant response rating [12, 16]: 0; Wheat plant response rating [12, 17]: 30
